# Reference: ChEMBL document CHEMBL1208668, “Synthesis and biological evaluation of novel spiro 6-methoxytetralin-1,3'-pyrrolidine based organoselenocyanates against cadmium-induced oxidative and hepatic damage in mice” (2010)
# The source made the active and inactive calls. No cut-off for these calls is given here.
# Experiments:
# Mus musculus [1] = assay: Hepatoprotective activity against cadmium-induced hepatic damage in Swiss albino mouse assessed as inhibition of cadmium-induced LPO level at 3 mg/kg, po administered 7 days prior to first cadmium treatment followed by administration for 20 days concomitantly with cadmium; assay type: functional, organism-based; design: dose 3 mg/kg
# Mus musculus [2] = assay: Hepatoprotective activity against cadmium-induced oxidative damage in Swiss albino mouse assessed as inhibition of cadmium-induced GSH depletion at 3 mg/kg, po administered for 20 days concomitantly with cadmium; assay type: functional, organism-based; design: dose 3 mg/kg
# Mus musculus [3] = assay: Hepatoprotective activity against cadmium-induced oxidative damage in Swiss albino mouse assessed as inhibition of cadmium-induced GSH depletion at 3 mg/kg, po administered 7 days prior to first cadmium treatment followed by administration for 20 days concomitantly with cadmium; assay type: functional, organism-based; design: dose 3 mg/kg
# Mus musculus [4] = assay: Hepatoprotective activity against cadmium-induced oxidative damage in Swiss albino mouse assessed as inhibition of cadmium-induced GST activity depletion at 3 mg/kg, po administered for 20 days concomitantly with cadmium; assay type: functional, organism-based; design: dose 3 mg/kg
# Mus musculus [5] = assay: Hepatoprotective activity against cadmium-induced oxidative damage in Swiss albino mouse assessed as inhibition of cadmium-induced GST activity depletion at 3 mg/kg, po administered 7 days prior to first cadmium treatment followed by administration for 20 days concomitantly with cadmium; assay type: functional, organism-based; design: dose 3 mg/kg
# Mus musculus [6] = assay: Hepatoprotective activity against cadmium-induced oxidative damage in Swiss albino mouse assessed as inhibition of cadmium-induced SOD activity depletion at 3 mg/kg, po administered for 20 days concomitantly with cadmium; assay type: functional, organism-based; design: dose 3 mg/kg
# Mus musculus [7] = assay: Hepatoprotective activity against cadmium-induced oxidative damage in Swiss albino mouse assessed as inhibition of cadmium-induced SOD activity depletion at 3 mg/kg, po administered 7 days prior to first cadmium treatment followed by administration for 20 days concomitantly with cadmium; assay type: functional, organism-based; design: dose 3 mg/kg
# Mus musculus [8] = assay: Hepatoprotective activity against cadmium-induced hepatic damage in Swiss albino mouse assessed as inhibition of cadmium-induced elevation in serum AST level at 3 mg/kg, po administered for 20 days concomitantly with cadmium; assay type: functional, organism-based; design: dose 3 mg/kg
# Mus musculus [9] = assay: Hepatoprotective activity against cadmium-induced hepatic damage in Swiss albino mouse assessed as inhibition of cadmium-induced elevation in serum AST level at 3 mg/kg, po administered 7 days prior to first cadmium treatment followed by administration for 20 days concomitantly with cadmium; assay type: functional, organism-based; design: dose 3 mg/kg
# Mus musculus [10] = assay: Hepatoprotective activity against cadmium-induced hepatic damage in Swiss albino mouse assessed as inhibition of cadmium-induced elevation in serum ALT level at 3 mg/kg, po administered for 20 days concomitantly with cadmium; assay type: functional, organism-based; design: dose 3 mg/kg
# Mus musculus [11] = assay: Hepatoprotective activity against cadmium-induced hepatic damage in Swiss albino mouse assessed as inhibition of cadmium-induced elevation in serum ALT level at 3 mg/kg, po administered 7 days prior to first cadmium treatment followed by administration for 20 days concomitantly with cadmium; assay type: functional, organism-based; design: dose 3 mg/kg
# Mus musculus [12] = assay: Renoprotective activity against cadmium-induced renal damage in Swiss albino mouse assessed as inhibition of cadmium-induced BUN level […] at 3 mg/kg, po administered 7 days prior to first cadmium treatment followed by administration for 20 days concomitantly with cadmium; assay type: functional, organism-based; design: dose 3 mg/kg
# Mus musculus [13] = assay: Renoprotective activity against cadmium-induced renal damage in Swiss albino mouse assessed as inhibition of cadmium-induced creatinine level change at 3 mg/kg, po administered for 20 days concomitantly with cadmium; assay type: functional, organism-based; design: dose 3 mg/kg
# Mus musculus [14] = assay: Renoprotective activity against cadmium-induced renal damage in Swiss albino mouse assessed as inhibition of cadmium-induced creatinine level change at 3 mg/kg, po administered 7 days prior to first cadmium treatment followed by administration for 20 days concomitantly with cadmium; assay type: functional, organism-based; design: dose 3 mg/kg
# Mus musculus [15] = assay: Hepatoprotective activity against cadmium-induced hepatic damage in Swiss albino mouse assessed as ratio of liver weight to body weight at 3 mg/kg, po administered for 20 days concomitantly with cadmium; assay type: functional
# Mus musculus [16] = assay: Hepatoprotective activity against cadmium-induced hepatic damage in Swiss albino mouse assessed as inhibition of cadmium-induced LPO level at 3 mg/kg, po administered for 20 days concomitantly with cadmium bt TBARS assay; assay type: functional, organism-based; design: dose 3 mg/kg
# Mus musculus [17] = assay: Hepatoprotective activity against cadmium-induced hepatic damage in Swiss albino mouse assessed as ratio of liver weight to body weight at 3 mg/kg, po administered 7 days prior to first cadmium treatment followed by administration for 20 days concomitantly with cadmium; assay type: functional
# Mus musculus [18] = assay: Hepatoprotective activity against cadmium-induced oxidative damage in Swiss albino mouse assessed as inhibition of cadmium-induced CAT activity depletion at 3 mg/kg, po administered for 20 days concomitantly with cadmium; assay type: functional, organism-based; design: dose 3 mg/kg
# Mus musculus [19] = assay: Hepatoprotective activity against cadmium-induced oxidative damage in Swiss albino mouse assessed as inhibition of cadmium-induced CAT activity depletion at 3 mg/kg, po administered 7 days prior to first cadmium treatment followed by administration for 20 days concomitantly with cadmium; assay type: functional, organism-based; design: dose 3 mg/kg
# Mus musculus [20] = assay: Renoprotective activity against cadmium-induced renal damage in Swiss albino mouse assessed as inhibition of cadmium-induced BUN level […] at 3 mg/kg, po administered for 20 days concomitantly with cadmium; assay type: functional, organism-based; design: dose 3 mg/kg
# Mus musculus [21] = assay: Hepatoprotective activity against cadmium-induced hepatic damage in Swiss albino mouse assessed as inhibition of cadmium-induced liver necrosis and inflammation at 3 mg/kg, po administered 7 days prior to first cadmium treatment followed by administration for 20 days concomitantly with cadmium; assay type: functional, organism-based; design: dose 3 mg/kg
# Mus musculus [22] = assay: Hepatoprotective activity against cadmium-induced hepatic damage in Swiss albino mouse assessed as inhibition of cadmium-induced liver necrosis and inflammation at 3 mg/kg, po administered for 20 days concomitantly with cadmium; assay type: functional, organism-based; design: dose 3 mg/kg
SMILES,inhibition (Mus musculus [1]),inhibition (Mus musculus [2]),inhibition (Mus musculus [3]),inhibition (Mus musculus [4]),inhibition (Mus musculus [5]),inhibition (Mus musculus [6]),inhibition (Mus musculus [7]),inhibition (Mus musculus [8]),inhibition (Mus musculus [9]),inhibition (Mus musculus [10]),inhibition (Mus musculus [11]),inhibition (Mus musculus [12]),inhibition (Mus musculus [13]),inhibition (Mus musculus [14]),Ratio (Mus musculus [15]),inhibition (Mus musculus [16]),Ratio (Mus musculus [17]),inhibition (Mus musculus [18]),inhibition (Mus musculus [19]),inhibition (Mus musculus [20]),further results
COc1ccc2c(c1)CCCC21CC(=O)N(CC[Se]C#N)C1=O (stereo not drawn),Active,inactive,inactive,Active,Active,inactive,inactive,Active,Active,inactive,inactive,Active,inactive,inactive,0.0525,Active,,,,,
COc1ccc2c(c1)CCCC21CC(=O)N(CCC[Se]C#N)C1=O (stereo not drawn),Active,,,Active,Active,inactive,inactive,Active,Active,inactive,inactive,Active,inactive,inactive,0.0483,Active,0.0474,,,,
COc1ccc2c(c1)CCCC21CC(=O)N(CCCC[Se]C#N)C1=O (stereo not drawn),Active,Active,Active,Active,Active,inactive,inactive,Active,Active,Active,Active,Active,inactive,inactive,0.0487,Active,0.0466,Active,Active,Active,
COc1ccc2c(c1)CCCC21CC(=O)N(CCCCC[Se]C#N)C1=O (stereo not drawn),Active,Active,Active,Active,Active,inactive,inactive,Active,Active,Active,Active,Active,inactive,inactive,0.047,Active,0.0428,Active,Active,Active,inhibition (Mus musculus [21]): Active; inhibition (Mus musculus [22]): Active
